# Data from US9586963B2 (GENFIT, priority 2011, dated 2017).
# Structures can show the parent of a compound that is named as a salt.
# Target: T1, Rev-Erb alpha (Homo sapiens, UniProt P20393)
# T1 sequence (P20393 284-614 limits assumed): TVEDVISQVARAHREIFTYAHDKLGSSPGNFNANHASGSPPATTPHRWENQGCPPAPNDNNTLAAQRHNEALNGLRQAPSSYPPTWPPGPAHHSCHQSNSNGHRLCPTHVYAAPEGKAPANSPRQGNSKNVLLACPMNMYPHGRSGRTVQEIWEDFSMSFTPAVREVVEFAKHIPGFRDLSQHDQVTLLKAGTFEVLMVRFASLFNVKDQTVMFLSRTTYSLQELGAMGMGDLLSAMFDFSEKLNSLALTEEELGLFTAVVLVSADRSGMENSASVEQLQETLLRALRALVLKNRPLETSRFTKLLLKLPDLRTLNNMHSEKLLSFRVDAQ
# Experiment: M2H (mammalian two-hybrid) cellular activation assay of Rev-Erb alpha
# Assay type: cell-based
# Conditions: M2H assay, HEK293 cells; for EC50: Gal4-Rev-Erb alpha / VP16-NCoR, luciferase reporter; for Emax: relative to DMSO, at the tested dose, read-out: TOP activation
# Description: In this system, Rev-Erb alpha or Rev-Erb beta is expressed as a fusion to the Gal4 DNA-binding domain and the cofactor NCoR is expressed as a fusion to the activation domain of the Herpes Simplex Virus tegument protein VP16. These fusion proteins were included in plasmids at a concentration of 1 μg/μL. The pBS-SK+ vector was added to the preparation to adjust the DNA quantity to a fixed value for each condition.
# The transfection mix (Jet-PEI protocol, Polyplus transfection) comprised: • 3 mL of Jet PEI Mix (180 μL Jet-Pei and NaCl at 150 mM) and • 3 mL of the DNA Mix or of the DNA Mix control (wherein the Gal4-Rev-Erb alpha plasmid was replaced by a pGal4phi plasmid).
# DNA Mix comprised 1.2 mL of DNA and 1.8 mL of NaCl at 150 mM with, in a T225 flask: • 90 ng of Gal4-Rev-Erb alpha, or 90 ng of Gal4-Rev-Erb beta, • 4500 ng of VP16-NCoR, • 27000 ng of Gal4-RE and • 13410 ng of pBS-SK+. Cells
# HEK293 cells were cultured in DMEM (Invitrogen 41965) comprising 10% FBS, P/S, 1% glutamine, 1% pyruvate (Invitrogen 11360) and 1% amino acids (Invitrogen 11140). Cells were then batch co-transfected with plasmid vectors (described in the table above) using as Jet-PEI as reagent (Polyplus) following the protocol specified below.
# The 6 mL-transfection mix was transferred in a T225 flask. HEK293 cells were then added at a concentration of 12 Millions of cells for 54 mL of medium (DMEM comprising 10% FBS and 1% P/S). Cells incubated over-night at 37° C. and under 5% CO2.
# This cell-based assay is performed using 384-well Greiner white plates (Reference 781080). After the incubation, cells were rinsed with PBS, trypsinized, centrifuged and resuspended in free-serum DMEM without phenol red (Invitrogen 31053). Cells were counted and adjusted to 0.5 Million per mL and plated at a concentration of 10,000 cells in 20 μL per well. They were incubated a minimum of 4 hours at 37° C. under 5% CO2. Cells were treated with 20 μL of the compound to analyze (concentration of 2× diluted in DMEM without FBS containing a maximum of 1% DMSO) and incubated over-night (18 hours, 37° C. and 5% CO2). Each compound has been tested at 6 different concentrations to depict a dose-effect allowing the measure of biochemical parameters such as EC50 and TOP activation (%).
# Cells were incubated 30 minutes with 40 μL/well of Steady Glow (Promega) and luminescence was read with TECAN Genios Pro (100 ms/w). Four experiments were carried out for each compound.
# Each compound has been tested at 6 different concentrations to depict a dose-effect allowing the measure of biochemical parameters such as EC50 and TOP activation (%).
# The mammalian two-hybrid system (M2H) assay consists herein in studying the ability of compounds according to the invention to activate Rev-Erbalpha in cells and thus modulate the interaction with its corepressor. The interaction of the two proteins is assessed with the help of the Luciferase reporter gene. HEK293 cells were transfected with two gene constructions: Gal4-RE VP16-NCoR and Gal4-Rev-Erbalpha or with Gal4-RE, sVP16-NCoR and Gal4-Rev-Erb beta.
# The ability of compounds according to the invention of activating Rev-Erbalpha alpha or Rev-Erb beta was assessed in the described cell-based assay. EC50 and TOP activation (%) were measured.
SMILES,EC50,Emax
"CCOc1ccc(-c2ccc(C(F)(F)F)cc2Oc2ccc3nnc(Cl)n3n2)cn1 [Cpd.4-84, 3-chloro-6-(2-(6-ethoxypyridin-3-yl)-5-(trifluoromethyl)phenoxy)-[1,2,4]triazolo[4,3-b]pyridazine]",1000 to 6000 nM,
"Cn1cc(-c2ccc(C(F)(F)F)cc2Oc2ccc3nnc(Cl)n3n2)ccc1=O [Cpd.4-86, 5-(2-(3-chloro-[1,2,4]triazolo[4,3-b]pyridazin-6-yloxy)-4-(trifluoromethyl)phenyl)-1-methylpyridin-2(1H)-one]",> 6000 nM,> 130%
"Fc1ccc(-c2ccc(C(F)(F)F)cc2Oc2ccc3nnc(Cl)n3n2)cn1 [Cpd.4-87, 3-chloro-6-(2-(6-fluoropyridin-3-yl)-5-(trifluoromethyl)phenoxy)-[1,2,4]triazolo[4,3-b]pyridazine]",1000 to 6000 nM,
"CCCn1cc(-c2ccc(C(F)(F)F)cc2Oc2ccc3nnc(Cl)n3n2)ccc1=O [Cpd.4-88, 5-(2-(3-chloro-[1,2,4]triazolo[4,3-b]pyridazin-6-yloxy)-4-(trifluoromethyl)phenyl)-1-propylpyridin-2(1H)-one]",> 6000 nM,> 130%
"CCCCn1cc(-c2ccc(C(F)(F)F)cc2Oc2ccc3nnc(Cl)n3n2)ccc1=O [Cpd.4-89, 1-butyl-5-(2-(3-chloro-[1,2,4]triazolo[4,3-b]pyridazin-6-yloxy)-4-(trifluoromethyl)phenyl)pyridin-2(1H)-one]",> 6000 nM,> 130%
"CCCOc1ccc(-c2ccc(C(F)(F)F)cc2Oc2ccc3nnc(Cl)n3n2)cn1 [Cpd.4-92, 3-chloro-6-(2-(6-propoxypyridin-3-yl)-5-(trifluoromethyl)phenoxy)-[1,2,4]triazolo[4,3-b]pyridazine hydrochloride]",> 6000 nM,> 130%
"Oc1cncc(-c2ccc(C(F)(F)F)cc2Oc2ccc3nnc(Cl)n3n2)c1 [Cpd.4-96, 5-(2-(3-chloro-[1,2,4]triazolo[4,3-b]pyridazin-6-yloxy)-4-(trifluoromethyl)phenyl)pyridin-3-ol]",> 6000 nM,> 130%
"FC(F)(F)c1ccc(-c2ccccn2)c(Oc2ccc3nnc(Cl)n3n2)c1 [Cpd.4-97, 3-chloro-6-(2-(pyridin-2-yl)-5-(trifluoromethyl)phenoxy)-[1,2,4]triazolo[4,3-b]pyridazine hydrochloride]",1000 to 6000 nM,
"Clc1nnc2ccc(Oc3ccccc3-c3cccnc3)nn12 [Cpd.4-98, 3-chloro-6-(2-(pyridin-3-yl)phenoxy)-[1,2,4]triazolo[4,3-b]pyridazine hydrochloride]",> 6000 nM,> 130%
"COc1ccncc1-c1ccc(C(F)(F)F)cc1Oc1ccc2nnc(Cl)n2n1 [Cpd.4-100, 3-chloro-6-(2-(4-methoxypyridin-3-yl)-5-(trifluoromethyl)phenoxy)-[1,2,4]triazolo[4,3-b]pyridazine]",1000 to 6000 nM,
"Clc1nnc2ccc(Oc3ccccc3-c3cscn3)nn12 [Cpd.4-103, 3-chloro-6-(2-(thiazol-4-yl)phenoxy)-[1,2,4]triazolo[4,3-b]pyridazine]",> 6000 nM,> 130%
"Clc1nnc2ccc(Oc3ccccc3-c3nccs3)nn12 [Cpd.4-104, 3-chloro-6-(2-(thiazol-2-yl)phenoxy)-[1,2,4]triazolo[4,3-b]pyridazine]",> 6000 nM,> 130%
"FC(F)(F)c1ccc(-c2nccs2)c(Oc2ccc3nnc(Cl)n3n2)c1 [Cpd.4-105, 3-chloro-6-(2-(thiazol-2-yl)-5-(trifluoromethyl)phenoxy)-[1,2,4]triazolo[4,3-b]pyridazine]",1000 to 6000 nM,
"FC(F)(F)c1ccc(-c2cscn2)c(Oc2ccc3nnc(Cl)n3n2)c1 [Cpd.4-106, 3-chloro-6-(2-(thiazol-4-yl)-5-(trifluoromethyl)phenoxy)-[1,2,4]triazolo[4,3-b]pyridazine]",1000 to 6000 nM,
"Fc1ccc(Oc2ccc3nnc(Cl)n3n2)c(-c2cccnc2)c1 [Cpd.4-107, 3-chloro-6-(4-fluoro-2-(pyridin-3-yl)phenoxy)-[1,2,4]triazolo[4,3-b]pyridazine]",> 6000 nM,> 130%
"Cc1noc(C)c1-c1ccccc1Oc1ccc2nnc(Cl)n2n1 [Cpd.4-109, 3-chloro-6-(2-(3,5-dimethylisoxazol-4-yl)phenoxy)-[1,2,4]triazolo[4,3-b]pyridazine]",> 6000 nM,> 130%
"CN1CCN(Cc2ccc(C(F)(F)F)cc2Oc2ccc3nnc(Cl)n3n2)CC1 [Cpd.4-124, 3-chloro-6-(2-((4-methylpiperazin-1-yl)methyl)-5-(trifluoromethyl)phenoxy)-[1,2,4]triazolo[4,3-b]pyridazine]",> 6000 nM,> 130%
"COc1ncc(-c2ccc(C(F)(F)F)cc2Oc2ccc3nnc(Cl)n3n2)cn1 [Cpd.4-127, 3-chloro-6-((2-(2-methoxypyrimidin-5-yl))-5-(trifluoromethyl)phenoxy)-[1,2,4]triazolo[4,3-b]pyridazine]",1000 to 6000 nM,
"CC(C)c1ncncc1-c1ccc(C(F)(F)F)cc1Oc1ccc2nnc(Cl)n2n1 [Cpd.4-128, 3-chloro-6-((2-(4-isopropylpyrimidin-5-yl))-5-(trifluoromethyl)phenoxy)-[1,2,4]triazolo[4,3-b]pyridazine]",1000 to 6000 nM,

# Now from value to compound:
EC50,Emax,SMILES
100 to 1000 nM,,"COc1ccc(-c2ccc(C(F)(F)F)cc2Oc2ccc3nnc(Cl)n3n2)cn1 [Cpd.4-81, 3-chloro-6-(2-(6-methoxypyridin-3-yl)-5-(trifluoromethyl)phenoxy)-[1,2,4]triazolo[4,3-b]pyridazine]"
1000 to 6000 nM,,"COc1cncc(-c2ccc(C(F)(F)F)cc2Oc2ccc3nnc(Cl)n3n2)c1 [Cpd.4-82, 3-chloro-6-(2-(5-methoxypyridin-3-yl)-5-(trifluoromethyl)phenoxy)-[1,2,4]triazolo[4,3-b]pyridazine]"
100 to 1000 nM,,"Clc1nnc2ccc(Oc3ccccc3-c3ccsc3)nn12 [Cpd.4-108, 3-chloro-6-(2-(thiophen-3-yl)phenoxy)-[1,2,4]triazolo[4,3-b]pyridazine]"
100 to 1000 nM,,"Clc1nnc2ccc(Oc3ccccc3-c3ccc4scnc4c3)nn12 [Cpd.4-110, 6-(2-(benzo[d]thiazol-5-yl)phenoxy)-3-chloro-[1,2,4]triazolo[4,3-b]pyridazine]"
100 to 1000 nM,,"COc1ccccc1-c1ccccc1Oc1ccc2nnc(Cl)n2n1 [Cpd.4-111, 3-chloro-6-(2′-methoxybiphenyl-2-yloxy)-[1,2,4]triazolo[4,3-b]pyridazine]"
< 100 nM,,"COc1ccc(-c2cccc(F)c2)c(Oc2ccc3nnc(Cl)n3n2)c1 [Cpd.4-112, 3-chloro-6-[(3′-fluoro-4-methoxybiphenyl-2-yl)oxy]-[1,2,4]triazolo[4,3-b]pyridazine]"
100 to 1000 nM,,"Clc1ccc(Oc2ccc(Cl)cc2Oc2ccc3nnc(Cl)n3n2)c(Cl)c1 [Cpd.4-114, 3-chloro-6-[5-chloro-2-(2,4-dichloro-phenoxy)-phenoxy]-[1,2,4]triazolo[4,3-b]pyridazine]"
100 to 1000 nM,,"Fc1ccc(Oc2ccc3nnc(Cl)n3n2)c(-c2ccccc2F)c1 [Cpd.4-121, 3-chloro-6-(2′,5-difluorobiphenyl-2-yloxy)-[1,2,4]triazolo[4,3-b]pyridazine]"
100 to 1000 nM,,"Cc1ncccc1-c1ccc(C(F)(F)F)cc1Oc1ccc2nnc(Cl)n2n1 [Cpd.4-123, 3-chloro-6-(2-(2-methylpyridin-3-yl)-5-(trifluoromethyl)phenoxy)-[1,2,4]triazolo[4,3-b]pyridazine]"
